We go through two compounds from patent US12121026B1, “N-[(1-phenyl-4H-1,2,4-triazol-3-yl) carbamothioyl]benzamide as an eco-friendly insecticidal agent against spodoptera littoralis” (KING FAISAL UNIVERSITY, priority 2023, dated 2024).

SMILES strings stand for the structures. Values after ≈ are worked out from the molar mass of the structure shown. Like-named read-outs stand apart in the source and are kept apart here.

The experiment relates to second and fourth instars larvae of the laboratory strain of cotton leafworm, S. littoralis. Description: Insecticidal bioassay screening (castor leaf dip). The settings on record: for Toxicity index %: 72 hrs, Diflubenzuron's LC50/compound's LC50 x100; for LC90 (mg/L) at 95%: after 72 hrs of treatment; for LC50: Spodoptera littoralis, foliar. The format is in vivo. As to the method:
Five concentrations (200, 100, 50, 25, 12.5 ppm) were designed for this synthetic compound and the reference Diflubenzuron compound as the dynamic ingredients based on ppm via diluting the commercial formulation.
In this experiment, castor leaves are immersed in each of the previously prepared concentrations of the components for 10 seconds and then left to dry for 60 minutes. Larvae of the second and fourth instars of each checked strain are prepared with treated leaves in gauze-covered glass containers for 72 hrs. An untreated control is made in which leaves are dipped in triton x-100 and distilled water only. Then the preserved leaves were removed & fresh, untreated leaves were provided for 72 hours. Three replicates (10 larvae each) were checked for each concentration. Daily inspection was carried out for all treatments and mortality percentages were recorded 3 days (72 hours) after treatment. The average mortality percentage was corrected employing Abbott's formula. The corrected mortality rate for each of the previously synthesized compounds is statistically calculated according to Finney (1970). Through this rate, the corresponding concentration test lines (LDP lines) are assessed.

Where [1] appears, read: 72 h, read-out: LC50 (mg/L) at 95%, 2nd instar larvae, after 72 hrs of treatment.
The mark [2] stands for this setting: 72 h, read-out: LC50 (mg/L) at 95%, 4th instar larvae, after 72 hrs of treatment.
[3] abbreviates: against Spodoptera littoralis under laboratory conditions, instar not stated.

Turning to `O=C(NC(=O)c1c(F)cccc1F)Nc1ccc(Cl)cc1` [Diflubenzuron, reference compound], the Toxicity index % runs as follows: (2nd instar larvae) 100%; (4th instar larvae) 100%. Moreover, the “LC90 (mg/L) at 95%” value reads like this: (2nd instar larvae) 520.0 mg/L (≈ 1670 µM); (4th instar larvae) 1540.5 mg/L (≈ 4960 µM). For the same compound, the LC50 runs as follows: under setting [1], 45.2 mg/L (≈ 145 µM); under setting [2], 144 mg/L (≈ 464 µM); under setting [3], 45.2 mg/L (≈ 145 µM).
As to `O=C(NC(=S)Nc1ncn(-c2ccccc2)n1)c1ccccc1` [Compound 1, N-[(1-phenyl-1H-1,2,4-triazol-3-yl)carbamothioyl]benzamide], the Toxicity index % is 22.8% (2nd instar larvae) and 36.7% (4th instar larvae). The “LC90 (mg/L) at 95%” value (2nd instar larvae) amounted to 1733.6 mg/L (≈ 5360 µM); the “LC90 (mg/L) at 95%” value (2nd instar larvae, listed as N-[(1-phenyl-4H-1,2,4-triazol-3-yl)carbamothioyl]benzamide) was “about 1733.6 mg/L”; the “LC90 (mg/L) at 95%” value (4th instar larvae) is recorded as 4090.2 mg/L (≈ 12600 µM); the “LC90 (mg/L) at 95%” value (4th instar larvae, listed as N-[(1-phenyl-4H-1,2,4-triazol-3-yl)carbamothioyl]benzamide) is “about 4090.2 mg/L”. Moreover, the LC50 is about 198 mg/L (≈ 613 µM) under setting [1], about 392 mg/L (≈ 1210 µM) under setting [2] and 198 mg/L (≈ 613 µM) under setting [3].
